According to patent US20200055848A1, “FURANONE DERIVATES AND METHODS OF USE THEREOF” (CARNA BIOSCIENCES, INC., priority 2016, published 2020):
Structures can show the parent of a compound that is named as a salt.

Target: T1, human Cdc7/human ASK complex protein (Homo sapiens, UniProt O00311)
T1 construct: purchased Carna Biosciences, Inc
Assay: Cdc7/ASK enzymatic assay
Format: biochemical
Conditions: 5 μM ATP; compared with compound 3
Experimental: Measurement of Cdc7 kinase activity was carried out using MSA assay kit (QuickScout™ Screening Assist Kit, Carna Biosciences, Inc.). Assay buffer (20 mM HEPES, 0.01% Triton X-100™, 2 mM dithiothreitol, pH 7.5) was used to prepare a substrate mixture solution comprising 4 μM of kinase-reaction substrate (FITC-labeled MCM2 peptide), 40 mM MgCl2, and 4 times concentrations of final targeted ATP (5, 100, and 1,000 μM). The enzyme supplied in the kit (human Cdc7/human ASK complex protein) was diluted into the assay buffer to prepare a 7 nM solution (enzyme solution). The compound stock solution was prepared by diluting a 10 mM DMSO solution into the assay buffer (final 4% DMSO). The kinase reaction was performed by mixing of 5 μL of the compound solution, 5 μL of the substrate mixture solution, and 10 μL of the enzyme solution in a 384-well plate. For the pre-incubation assay, the compound solution and the enzyme solution were pre-mixed and incubated at ambient temperature for 30 min before adding into the substrate mixture solution to start enzymatic reaction. After the reaction at 25° C. for 5 hours, 60 μL of the termination buffer (supplied in the kit) was added to stop the reaction. The phosphorylation of substrate was measured using a LabChip EZ Reader II system (Caliper Life Sciences). The percent inhibition (%) by a tested compound was calculated according to the following formula:
Percent inhibition (%)=(1−(C−A)/(B−A))×100
A represents P/(P+S) for a blank well, B represents P/(P+S) for a solvent well, and C represents P/(P+S) for a compound-added well. S: the peak heights of the separated substrate, P: phosphorylated substrate.
The IC50 value of tested compound was calculated by regression analysis of the percent inhibition values versus the (logarithmic) concentration of the tested compound.

T1 sequence (O00311 whole entry): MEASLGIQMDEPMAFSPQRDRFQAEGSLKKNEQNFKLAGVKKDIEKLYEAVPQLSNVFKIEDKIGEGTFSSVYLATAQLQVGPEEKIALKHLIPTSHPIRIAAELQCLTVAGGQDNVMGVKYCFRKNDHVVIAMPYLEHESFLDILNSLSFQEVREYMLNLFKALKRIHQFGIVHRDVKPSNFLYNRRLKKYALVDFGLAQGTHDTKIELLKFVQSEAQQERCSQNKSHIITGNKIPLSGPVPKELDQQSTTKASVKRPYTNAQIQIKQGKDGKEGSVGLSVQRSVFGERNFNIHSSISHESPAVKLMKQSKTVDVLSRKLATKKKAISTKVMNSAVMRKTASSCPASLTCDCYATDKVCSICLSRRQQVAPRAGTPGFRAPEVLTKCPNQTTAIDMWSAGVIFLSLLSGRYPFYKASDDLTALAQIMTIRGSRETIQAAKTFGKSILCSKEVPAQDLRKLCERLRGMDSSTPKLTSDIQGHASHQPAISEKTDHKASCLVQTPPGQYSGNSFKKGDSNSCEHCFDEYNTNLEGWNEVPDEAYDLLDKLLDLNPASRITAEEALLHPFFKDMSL
T1 sequence (Q9UBU7 whole entry partner): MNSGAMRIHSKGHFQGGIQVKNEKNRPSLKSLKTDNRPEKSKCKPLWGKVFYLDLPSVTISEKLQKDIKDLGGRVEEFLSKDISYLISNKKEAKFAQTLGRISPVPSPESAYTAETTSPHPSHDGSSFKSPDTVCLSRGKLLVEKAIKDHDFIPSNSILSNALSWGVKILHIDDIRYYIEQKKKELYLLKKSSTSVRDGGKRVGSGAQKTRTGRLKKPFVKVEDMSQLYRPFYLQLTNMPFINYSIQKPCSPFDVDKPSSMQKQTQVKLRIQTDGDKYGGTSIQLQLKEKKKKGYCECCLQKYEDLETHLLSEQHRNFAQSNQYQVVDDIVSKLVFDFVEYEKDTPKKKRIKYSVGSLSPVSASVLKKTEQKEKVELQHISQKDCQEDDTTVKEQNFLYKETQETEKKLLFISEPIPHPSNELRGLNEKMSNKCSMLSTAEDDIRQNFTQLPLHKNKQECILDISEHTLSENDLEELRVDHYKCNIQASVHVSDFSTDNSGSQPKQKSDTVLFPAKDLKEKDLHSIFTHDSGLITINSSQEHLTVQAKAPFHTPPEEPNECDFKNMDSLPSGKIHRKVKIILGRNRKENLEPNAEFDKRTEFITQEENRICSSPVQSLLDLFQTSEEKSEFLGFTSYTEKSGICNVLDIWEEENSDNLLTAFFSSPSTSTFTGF

Row | SMILES | Cdc7 inhibitory potency (in words)
1 | CCOC(=O)C1=C(NCc2ccccc2)O/C(=C\c2c[nH]c3ncccc23)C1=O [Compound 32, Ethyl 5-((1H-pyrrolo[2,3-b]pyridin-3-yl)methylene)-2-(benzylamino)-4-oxo-4,5-dihydrofuran-3-carboxylate hydrochloride] | some decrease in potency
2 | CCNC(=O)C1=C(Nc2ccccc2)O/C(=C\c2c[nH]c3ncccc23)C1=O [Compound 11, 5-((1H-Pyrrolo[2,3-b]pyridin-3-yl)methylene)-N-ethyl-4-oxo-2-(phenylamino)-4,5-dihydrofuran-3-carboxamide] | significant decrease in potency
3 | CCOC(=O)C1=C(Nc2ccccc2)SC(=Cc2c[nH]c3ncccc23)C1=O [Compound 4, Ethyl 5-((1H-pyrrolo[2,3-b]pyridin-3-yl)methylene)-4-oxo-2-(phenylamino)-4,5-dihydrothiophene-3-carboxylate] | retention of some potency
4 | CCOC(=O)C1=C(NCCc2ccccc2)O/C(=C\c2c[nH]c3ncccc23)C1=O [Compound 33, Ethyl 5-((1H-pyrrolo[2,3-b]pyridin-3-yl)methylene)-4-oxo-2-(phenethylamino)-4,5-dihydrofuran-3-carboxylate hydrochloride] | some decrease in potency
5 | NC(=O)C1=C(Nc2ccccc2)O/C(=C\c2c[nH]c3ncccc23)C1=O [Compound 10, 5-((1H-Pyrrolo[2,3-b]pyridin-3-yl)methylene)-4-oxo-2-(phenylamino)-4,5-dihydrofuran-3-carboxamide] | significant decrease in potency

Same assay, conditions: 5 μM ATP; mean of duplicated assays; read-out: Cdc7 IC50

Row | SMILES | IC50
6 | CCOC(=O)C1=C(Nc2ccccn2)OC(=Cc2c[nH]c3ncccc23)C1=O [Compound 25, Ethyl 5-((1H-pyrrolo[2,3-b]pyridin-3-yl)methylene)-4-oxo-2-(pyridin-2-ylamino)-4,5-dihydrofuran-3-carboxylate] | 30 nM
7 | CCOC(=O)C1=C(Nc2ccccc2)OC(=Cc2ccc(O)c(C)c2)C1=O [Compound 6, Ethyl 5-(4-hydroxy-3-methylbenzylidene)-4-oxo-2-(phenylamino)-4,5-dihydrofuran-3-carboxylate] | 1200 nM
8 | CCOC(=O)C1=C(Nc2cncnc2)O/C(=C\c2c[nH]c3ncccc23)C1=O [Compound 28, Ethyl 5-((1H-pyrrolo[2,3-b]pyridin-3-yl)methylene)-4-oxo-2-(pyrimidin-5-ylamino)-4,5-dihydrofuran-3-carboxylate] | 18 nM
9 | CCOC(=O)C1=C(Nc2ccccc2)OC(=Cc2ccc3c(c2)OCO3)C1=O [Compound 7, Ethyl 5-(benzo[d][1,3]dioxol-5-ylmethylene)-4-oxo-2-(phenylamino)-4,5-dihydrofuran-3-carboxylate] | 3200 nM
10 | CCOC(=O)C1=C(NCc2ccccc2)O/C(=C\c2c[nH]c3ncccc23)C1=O [Compound 32, Ethyl 5-((1H-pyrrolo[2,3-b]pyridin-3-yl)methylene)-2-(benzylamino)-4-oxo-4,5-dihydrofuran-3-carboxylate hydrochloride] | 23 nM
11 | CCOC(=O)C1=C(Nc2cc[nH]n2)O/C(=C\c2c[nH]c3ncccc23)C1=O [Compound 29, Ethyl 2-((1H-pyrazol-3-yl)amino)-5-((1H-pyrrolo[2,3-b]pyridin-3-yl)methylene)-4-oxo-4,5-dihydrofuran-3-carboxylate] | 10 nM
12 | CCOC(=O)C1=C(Nc2ccc3cn[nH]c3c2)OC(=Cc2c[nH]c3ncccc23)C1=O [Compound 31, Ethyl 2-((1H-indazol-6-yl)amino)-5-((1H-pyrrolo[2,3-b]pyridin-3-yl)methylene)-4-oxo-4,5-dihydrofuran-3-carboxylate] | 4 nM
13 | CCOC(=O)C1=C(Nc2cccc(OC)c2)OC(=Cc2c[nH]c3ncccc23)C1=O [Compound 17, Ethyl 5-((1H-pyrrolo[2,3-b]pyridin-3-yl)methylene)-2-((3-methoxyphenyl)amino)-4-oxo-4,5-dihydrofuran-3-carboxylate] | 29 nM
14 | CCOC(=O)C1=C(Nc2cccnc2)OC(=Cc2c[nH]c3ncccc23)C1=O [Compound 26, Ethyl 5-((1H-pyrrolo[2,3-b]pyridin-3-yl)methylene)-4-oxo-2-(pyridin-3-ylamino)-4,5-dihydrofuran-3-carboxylate] | 8 nM
15 | CCOC(=O)C1=C(Nc2ccncc2)OC(=Cc2c[nH]c3ncccc23)C1=O [Compound 27, Ethyl 5-((1H-pyrrolo[2,3-b]pyridin-3-yl)methylene)-4-oxo-2-(pyridin-4-ylamino)-4,5-dihydrofuran-3-carboxylate] | 3.5 nM
16 | CCOC(=O)C1=C(Nc2ccc(Cl)cc2)OC(=Cc2c[nH]c3ncccc23)C1=O [Compound 15, Ethyl 5-((1H-pyrrolo[2,3-b]pyridin-3-yl)methylene)-2-((4-chlorophenyl)amino)-4-oxo-4,5-dihydrofuran-3-carboxylate] | 6.7 nM
17 | CCOC(=O)C1=C(Nc2ccc(C)cc2)OC(=Cc2c[nH]c3ncccc23)C1=O [Compound 22, Ethyl 5-((1H-pyrrolo[2,3-b]pyridin-3-yl)methylene)-4-oxo-2-(p-tolylamino)-4,5-dihydrofuran-3-carboxylate] | 5.9 nM
18 | CCOC(=O)C1=C(Nc2cccc(Cl)c2)OC(=Cc2c[nH]c3ncccc23)C1=O [Compound 14, Ethyl 5-((1H-pyrrolo[2,3-b]pyridin-3-yl)methylene)-2-((3-chlorophenyl)amino)-4-oxo-4,5-dihydrofuran-3-carboxylate] | 12 nM
19 | CCOC(=O)C1=C(Nc2ccccc2OC)OC(=Cc2c[nH]c3ncccc23)C1=O [Compound 16, Ethyl 5-((1H-pyrrolo[2,3-b]pyridin-3-yl)methylene)-2-((2-methoxyphenyl)amino)-4-oxo-4,5-dihydrofuran-3-carboxylate] | 12 nM
20 | CCOC(=O)C1=C(Nc2ccc3ncccc3c2)O/C(=C\c2c[nH]c3ncccc23)C1=O [Compound 30, Ethyl 5-((1H-pyrrolo[2,3-b]pyridin-3-yl)methylene)-4-oxo-2-(quinolin-6-ylamino)-4,5-dihydrofuran-3-carboxylate] | 36 nM
21 | O=C(O)C1=C(Nc2ccccc2)O/C(=C\c2c[nH]c3ncccc23)C1=O [Compound 9, 5-((1H-Pyrrolo[2,3-b]pyridin-3-yl)methylene)-4-oxo-2-(phenylamino)-4,5-dihydrofuran-3-carboxylic acid] | 9.9 nM
22 | CCOC(=O)C1=C(Nc2ccccc2)SC(=Cc2c[nH]c3ncccc23)C1=O [Compound 4, Ethyl 5-((1H-pyrrolo[2,3-b]pyridin-3-yl)methylene)-4-oxo-2-(phenylamino)-4,5-dihydrothiophene-3-carboxylate] | > 10000 nM
23 | CCOC(=O)C1=C(NCCc2ccccc2)O/C(=C\c2c[nH]c3ncccc23)C1=O [Compound 33, Ethyl 5-((1H-pyrrolo[2,3-b]pyridin-3-yl)methylene)-4-oxo-2-(phenethylamino)-4,5-dihydrofuran-3-carboxylate hydrochloride] | 30 nM
24 | NC(=O)C1=C(Nc2ccccc2)O/C(=C\c2c[nH]c3ncccc23)C1=O [Compound 10, 5-((1H-Pyrrolo[2,3-b]pyridin-3-yl)methylene)-4-oxo-2-(phenylamino)-4,5-dihydrofuran-3-carboxamide] | > 10000 nM
25 | CCOC(=O)C1=C(Nc2ccccc2)OC(=Cc2c[nH]c3ncc(Cl)cc23)C1=O [Compound 5, Ethyl 5-((5-chloro-1H-pyrrolo[2,3-b]pyridin-3-yl)methylene)-4-oxo-2-(phenylamino)-4,5-dihydrofuran-3-carboxylate] | 44 nM
